From PMC6469979, “A Dopamine-Responsive Signal Transduction Controls Transcription of Salmonella enterica Serovar Typhimurium Virulence Genes” (mBio, 2019)

Target: EmrR-His6 (EmrR) (Salmonella enterica, UniProt Q7CPY9)
Test: EMSA, release of EmrR-His6 from […]-labelled pagC-pagD promoter DNA
Conditions: dopamine 1, 10, 100 uM; 50 pmol EmrR-His6 in 20 ul; room temperature, 30 min; DNA-binding inhibition

Sequence of EmrR-His6 (EmrR) (Q7CPY9 entry or part of it): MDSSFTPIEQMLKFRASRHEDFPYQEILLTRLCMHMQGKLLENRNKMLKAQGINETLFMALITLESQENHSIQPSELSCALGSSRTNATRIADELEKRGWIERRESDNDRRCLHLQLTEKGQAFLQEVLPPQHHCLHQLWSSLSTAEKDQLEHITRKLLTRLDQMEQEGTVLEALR

NCCc1ccc(O)c(O)c1 [dopamine]
EMSA, release of EmrR-His6 from 32P-labelled pagC-pagD promoter DNA: dopamine alone was sufficient to reduce the affinity of a pure EmrR protein
